From ChEMBL document CHEMBL1138660, “Contribution of ionization and lipophilicity to drug binding to albumin: a preliminary step toward biodistribution prediction” (J Med Chem, 2004)

What was measured:
[1] = human, plasma
physchem [2] = settings: buffer, pH 7.4
Description: Distribution coeeficient for the compound at pH7.4 (Log D7.4)

physchem [3] = assay: physchem
Description: pKa value of the compound

B(DPB) [1] [%]	logD (physchem [2])	pKa (physchem [3])	SMILES
89.6	-0.32	4.95	CN1C(C(=O)Nc2ccccn2)=C(O)c2sccc2S1(=O)=O [TENOXICAM]
3.9	-0.48	8.48	CNC(=C[N+](=O)[O-])NCCSCc1ccc(CN(C)C)o1 [RANITIDINE]

More lines, now with the values behind:

SMILES	B(DPB) [1] [%]	logD (physchem [2])	pKa (physchem [3])
COc1ccc2cc([C@H](C)C(=O)O)ccc2c1 [NAPROXEN]	> 95		
COC(=O)C1=C(C)NC(C)=C(C(=O)OCCN(C)Cc2ccccc2)C1c1cccc([N+](=O)[O-])c1 (centres undefined) [NICARDIPINE]	93.4	4.25	7.17
CCCC(=O)Nc1ccc(OCC(O)CNC(C)C)c(C(C)=O)c1 (centres undefined) [ACEBUTOLOL]	0		
CN(Cc1cnc2nc(N)nc(N)c2n1)c1ccc(C(=O)N[C@@H](CCC(=O)O)C(=O)O)cc1 [METHOTREXATE]	49.9	-2.52	
NS(=O)(=O)c1cc(C(=O)O)c(NCc2ccco2)cc1Cl [FUROSEMIDE]	87.2		
